Measured values reported in patent US20090023747A1, “Cysteine Protease Inhibitors” (priority 2005, published 2009).

Columns and labels:
cathepsin K = target: T1, cathepsin K (Homo sapiens, UniProt P43235); test: Determination of cathepsin K proteolytic catalytic activity (fluorogenic peptide substrate); format: biochemical; settings: human recombinant enzyme
T1 construct: made in house; host or cells: not fixed: E coli, Pichia or Baculovirus systems named as options
T1 sequence (P43235 115-329): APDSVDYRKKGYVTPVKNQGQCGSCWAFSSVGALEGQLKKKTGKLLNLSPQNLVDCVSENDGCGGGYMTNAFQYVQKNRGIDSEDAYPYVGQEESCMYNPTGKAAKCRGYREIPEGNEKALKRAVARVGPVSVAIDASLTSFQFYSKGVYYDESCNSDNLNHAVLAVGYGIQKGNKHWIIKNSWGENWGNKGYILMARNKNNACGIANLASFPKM
Experimental: Convenient assays for cathepsin K are carried out using human recombinant enzyme, such as that described in PDB.
The recombinant cathepsin K can be expressed in a variety of commercially available expression systems including E coli, Pichia and Baculovirus systems.
The purified enzyme is activated by removal of the prosequence by conventional methods.
Standard assay conditions for the determination of kinetic constants used a fluorogenic peptide substrate, typically H-D-Ala-Leu-Lys-AMC, and were determined in either 100 mM Mes/Tris, pH 7.0 containing 1 mM EDTA and 10 mM 2-mercaptoethanol or 100 mMNa phosphate, imM EDTA, 0.1% PEG4000 pH 6.5 or 100 mM Na acetate, pH 5.5 containing 5 mM EDTA and 20 mM cysteine, in each case optionally with […] as stabiliser. The enzyme concentration used was 5 nM. The stock substrate solution was prepared at 10 mM in DMSO. Screens were carried out at a fixed substrate concentration of 60 μM and detailed kinetic studies with doubling dilutions of substrate from 250 μM. The total DMSO concentration in the assay was kept below 3%. All assays were conducted at ambient temperature. Product fluorescence (excitation at 390 nm, emission at 460 nm) was monitored with a Labsystems Fluoroskan Ascent fluorescent plate reader. Product progress curves were generated over 15 minutes following generation of AMC product.
(§1) Potential inhibitors are screened using the above assay with variable concentrations of test compound. Reactions were initiated by addition of enzyme to buffered solutions of substrate and inhibitor. Ki values were calculated according to equation 1
(§2) where v0 is the velocity of the reaction, V is the maximal velocity, S is the concentration of substrate with Michaelis constant of KM, and I is the concentration of inhibitor.

cathepsin L = cathepsin L (Homo sapiens, UniProt P07711); test: Cathepsin L Ki determination (H-D-Val-Leu-Lys-AMC substrate); format: biochemical
Sequence of cathepsin L (P07711 114-333): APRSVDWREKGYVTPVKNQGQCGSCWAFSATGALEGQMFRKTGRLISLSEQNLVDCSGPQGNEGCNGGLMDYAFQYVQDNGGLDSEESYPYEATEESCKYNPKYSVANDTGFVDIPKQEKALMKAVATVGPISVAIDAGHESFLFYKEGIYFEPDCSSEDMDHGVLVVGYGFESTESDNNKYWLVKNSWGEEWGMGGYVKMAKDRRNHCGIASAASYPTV
Experimental: The procedure above with the following amendments is used for the determination of Ki for cathepsin L.
The enzyme is commercially available human cathepsin L (for example Calbiochem). The substrate is H-D-Val-Leu-Lys-AMC available from Bahcem. The assay buffer is 100 mM sodium acetate 1 mM EDTA, pH5.5) The DMSO stock (10 mM in 100% DMSO) is diluted to 10% in assay buffer. Enzyme is prepared at 5 nM concentration in assay buffer plus 1 mM dithiothreitol just before use. 2 ul of 10 mM inhibitor made up in 100% DMSO is dispensed into row A. 10 ul of 50 uM substrate (=1/200 dilution of 10 mM stock in DMSO, diluted in assay buffer)
as §1, §2

cathepsin S = target: T2, cathepsin S (Homo sapiens, UniProt P25774); test: Cathepsin S Ki determination (boc-Val-Leu-Lys-AMC substrate); format: biochemical; settings: baculovirus-expressed human cathepsin S
T2 construct: made in house
T2 sequence (P25774 115-331): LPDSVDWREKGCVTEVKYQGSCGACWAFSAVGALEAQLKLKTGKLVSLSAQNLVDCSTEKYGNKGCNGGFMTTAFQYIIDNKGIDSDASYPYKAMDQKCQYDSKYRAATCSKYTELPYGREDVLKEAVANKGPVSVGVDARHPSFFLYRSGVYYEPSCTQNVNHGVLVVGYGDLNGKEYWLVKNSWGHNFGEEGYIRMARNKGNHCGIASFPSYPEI
Experimental: The assay uses baculovirus-expressed human cathepsin S and the boc-Val-Leu-Lys-AMC fluorescent substrate available from Bachem in a 384 well plate format, in which 7 test compounds can be tested in parallel with a positive control comprising a known cathepsin S inhibitor comparator.
280 μl/well of 12.5% DMSO are added to rows B-H of two columns of a 96 deep well polypropylene plate. 70 μl/well of substrate is added to row A. 2×250 μl/well of assay buffer (100 mM Na phosphate, 100 mM NaCl, pH 6.5) is added to row A, mixed, and double diluted down the plate to row H.
100 μl/well of assay buffer is added to columns 2-5 and 7-12 of 4 rows of a 96 well V bottom polypropylene plate. 200 μl/well of assay buffer is added to columns 1 and 6.
2 μl of each 10 mM test compound is added to a separate well on row A, columns 1-10. Add 90 μl assay buffer containing 1 mM DTT and 2 nM cathepsin S to each well of rows B-H and 180 μl to row A. Mix row A using a multichannel pipette and double dilute to row G. Mix row H and read in the fluorescent spectrophotometer.
The second test compound is added to column 6 of the top row, the third to column 1 of the second row etc. Add 1 μl of comparator to column 6 of the bottom row. Mix column 1 and double dilute to column 5. Mix column 6 and double dilute to column 10.
Using an 8-channel multistepping pipette set to 5×10 μl, distribute 10 μl/well of substrate to the 384 well assay plate. Distribute the first column of the substrate dilution plate to all columns of the assay plate starting at row A. The tip spacing of the multichannel pipette will correctly skip alternate rows. Distribute the second column to all columns starting at row B.
Using a 12-channel multistepping pipette set to 4×10 μl, distribute 10 μl/well of inhibitor to the 384 well assay plate. Distribute the first row of the inhibitor dilution plate to alternate rows of the assay plate starting at A1. The tip spacing of the multichannel pipette will correctly skip alternate columns. Similarly, distribute the second, third and fourth rows to alternate rows and columns starting at A2, B1 and B2 respectively.
Mix 20 ml assay buffer and 20 μl 1M DTT. Add sufficient cathepsin S to give 2 nM final concentration.
Using the a distributor such as a Multidrop 384, add 30 μl/well to all wells of the assay plate and read in fluorescent spectrophotomoter such as an Ascent.
Fluorescent readings, (excitation and emission wavelengths 390 nm and 460 nm respectively, set using bandpass filters) reflecting the extent of enzyme cleavage of the fluorescent substrate, […] the inhibitor, are linear rate fitted for each well.
Fitted rates for all wells for each inhibitor are fitted to the competitive inhibition equation using SigmaPlot 2000 to determine V, Km and Ki values.
as §1, §2

[1] = reference markers for the permeability assay; cited from earlier work

Row | SMILES | IC50 (cathepsin K) [µM] | IC50 (cathepsin L) [µM] | IC50 (cathepsin S) [µM] | % absorption in man [1] [%]
1 | Cc1ccc(-c2ccc([C@H](N[C@@H](CC(C)C)C(=O)N3C[C@H](F)[C@H]4OCC(=O)[C@H]43)C(F)(F)F)cc2)cc1 [Example 33, (3aS,6S,6aS)-6-Fluoro-4-{(S)-4-methyl-2-[(S)-2,2,2-trifluoro-1-(4′-methyl-biphenyl-4-yl)-ethylamino]-pentanoyl}-tetrahydro-furo[3,2-b]pyrrol-3-one] | 0.19 | 20 | 20 | –
2 | CSc1ccc(-c2ccc([C@H](N[C@@H](CC(C)C)C(=O)N3C[C@H](F)[C@H]4OCC(=O)[C@H]43)C(F)(F)F)cc2)cc1 [Example 28, (3aS,6S,6aS)-6-Fluoro-4-{(S)-4-methyl-2-[(S)-2,2,2-trifluoro-1-(4′-methylsulfanyl-biphenyl-4-yl)-ethylamino]-pentanoyl}-tetrahydro-furo[3,2-b]pyrrol-3-one] | 0.051 | 5.5 | 10 | –
3 | CC(C)C[C@H](N[C@@H](c1ccc(-c2ccc(S(C)(=O)=O)cc2)cc1)C(F)(F)F)C(=O)N1C[C@H](F)[C@H]2OCC(=O)[C@H]21 [Example 14, (3aS,6S,6aS)-6-Fluoro-4-[(S)-4-methyl-2-{(S)-2,2,2-trifluoro-1-(4′-methanesulfonyl-biphenyl-4-yl)-ethylamino]-pentanoyl}-tetrahydro-furo[3,2-b]pyrrol-3-one] | 0.029 | 100 | 36 | –
4 | CC(C)C[C@H](N[C@@H](c1ccc(-c2ccccc2F)cc1)C(F)(F)F)C(=O)N1C[C@H](F)[C@H]2OCC(=O)[C@H]21 [Example 26, (3aS,6S,6aS)-6-Fluoro-4-{(S)-4-methyl-2-[(S)-2,2,2-trifluoro-1-(2′-fluoro-biphenyl-4-yl)-ethylamino]-pentanoyl}-tetrahydro-furo[3,2-b]pyrrol-3-one] | 0.044 | 25 | 22 | –
5 | CC(C)C[C@H](N[C@@H](c1ccc(-c2ccc([S+](C)[O-])cc2)cc1)C(F)(F)F)C(=O)N1C[C@H](F)[C@H]2OCC(=O)[C@H]21 (stereo partly drawn) [Example 29, (3aS,6S,6aS)-6-Fluoro-4-{(S)-4-methyl-2-[(S)-2,2,2-trifluoro-1-(4′-methylsulfoxide-biphenyl-4-yl)-ethylamino]-pentanoyl}-tetrahydro-furo[3,2-b]pyrrol-3-one] | 0.018 | 180 | 27 | –
6 | COc1ccc(-c2ccc([C@H](N[C@@H](CC(C)C)C(=O)N3C[C@H](F)[C@H]4OCC(=O)[C@H]43)C(F)(F)F)cc2)cc1 [Example 31, (3aS,6S,6aS)-6-Fluoro-4-{(S)-4-methyl-2-[(S)-2,2,2-trifluoro-1-(4′-methoxy-biphenyl-4-yl)-ethylamino]-pentanoyl}-tetrahydro-furo[3,2-b]pyrrol-3-one] | 0.07 | 29 | 19 | –
7 | N[C@@H](Cc1ccccc1)C(=O)O [L-Phenylalanine] | – | – | – | 100
8 | OC[C@@H](O)[C@@H](O)[C@H](O)[C@H](O)CO [Mannitol] | – | – | – | 16
9 | CC(C)C[C@H](N[C@@H](c1ccc(-c2ccc(F)cc2)cc1)C(F)(F)F)C(=O)N1C[C@H](F)[C@H]2OCC(=O)[C@H]21 [Example 20, (3aS,6S,6aS)-6-Fluoro-4-{(S)-4-methyl-2-[(S)-2,2,2-trifluoro-1-(4′-fluoro-biphenyl-4-yl)-ethylamino]-pentanoyl}-tetrahydro-furo[3,2-b]pyrrol-3-one] | 0.18 | 30 | 37 | –
10 | CN(Cc1cnc2nc(N)nc(N)c2n1)c1ccc(C(=O)N[C@@H](CCC(=O)O)C(=O)O)cc1 [Methotrexate] | – | – | – | 20
11 | CC(C)C[C@H](N[C@@H](c1ccc(-c2cccc(S(C)(=O)=O)c2)cc1)C(F)(F)F)C(=O)N1C[C@H](F)[C@H]2OCC(=O)[C@H]21 [Example 18, (3aS,6S,6aS)-6-Fluoro-4-{(S)-4-methyl-2-[(S)-2,2,2-trifluoro-1-(3′-methanesulfonyl-biphenyl-4-yl)-ethylamino]-pentanoyl}-tetrahydro-furo[3,2-b]pyrrol-3-one] | 0.056 | 94 | 19 | –
12 | CC(C)C[C@H](N[C@@H](c1ccc(-c2csc(N3CCN(C)CC3)n2)cc1)C(F)(F)F)C(=O)N1C[C@H](F)[C@H]2OCC(=O)[C@H]21 [Example 58, (3aS,6S,6aS)-6-Fluoro-4-[(S)-4-methyl-2-((S)-2,2,2-trifluoro-1-{4-[2-(4-methyl-piperazin-1-yl)-thiazol-4-yl]-phenyl}-ethylamino)-pentanoyl]-tetrahydro-furo[3,2-b]pyrrol-3-one] | < 0.005 | 139 | 188 | –
